# Laboratory results from ChEMBL document CHEMBL1201862, “PubChem BioAssay data set” (2004).
# The source made the active and inactive calls.
# Experiments:
# Aminopeptidase N = target: T1, Aminopeptidase N (Plasmodium falciparum FcB1/Columbia, UniProt O96935); test: P. falciparum M1AAP inhibitors, biochemical, fluorogenic H-Leu-NHMec substrate, 1536-well (AID 1445); parameters: species or system Plasmodium falciparum 3D7, 3D7
# T1 sequence (O96935 whole entry): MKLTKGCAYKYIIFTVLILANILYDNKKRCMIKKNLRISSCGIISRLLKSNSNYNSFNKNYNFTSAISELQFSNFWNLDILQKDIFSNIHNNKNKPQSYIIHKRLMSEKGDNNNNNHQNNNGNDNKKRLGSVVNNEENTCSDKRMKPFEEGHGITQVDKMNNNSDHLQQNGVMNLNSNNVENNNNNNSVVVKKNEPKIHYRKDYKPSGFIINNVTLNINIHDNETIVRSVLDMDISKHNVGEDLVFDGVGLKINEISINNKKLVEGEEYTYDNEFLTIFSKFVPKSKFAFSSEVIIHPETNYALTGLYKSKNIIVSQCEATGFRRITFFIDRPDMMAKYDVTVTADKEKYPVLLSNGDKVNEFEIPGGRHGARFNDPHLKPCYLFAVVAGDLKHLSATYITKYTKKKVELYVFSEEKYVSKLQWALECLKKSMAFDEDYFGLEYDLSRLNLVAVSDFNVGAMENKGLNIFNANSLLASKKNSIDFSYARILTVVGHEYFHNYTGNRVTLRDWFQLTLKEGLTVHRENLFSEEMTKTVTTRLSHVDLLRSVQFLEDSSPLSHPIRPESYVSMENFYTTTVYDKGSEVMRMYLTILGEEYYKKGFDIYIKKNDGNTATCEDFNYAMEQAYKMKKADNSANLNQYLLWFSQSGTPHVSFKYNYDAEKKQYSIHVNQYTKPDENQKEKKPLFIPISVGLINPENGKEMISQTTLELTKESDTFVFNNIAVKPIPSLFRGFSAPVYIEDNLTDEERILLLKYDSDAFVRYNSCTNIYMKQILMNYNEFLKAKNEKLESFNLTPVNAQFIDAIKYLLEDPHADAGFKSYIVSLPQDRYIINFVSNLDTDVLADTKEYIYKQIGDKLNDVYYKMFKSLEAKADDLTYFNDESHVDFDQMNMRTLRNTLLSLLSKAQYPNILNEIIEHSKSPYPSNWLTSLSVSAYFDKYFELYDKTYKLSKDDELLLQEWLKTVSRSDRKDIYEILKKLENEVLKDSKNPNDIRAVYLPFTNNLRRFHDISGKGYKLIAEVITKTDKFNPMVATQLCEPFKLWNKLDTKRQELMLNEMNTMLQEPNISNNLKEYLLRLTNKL
# [1] = target: Voltage-dependent T-type calcium channel subunit alpha-1H (Homo sapiens, UniProt O95180); type: functional;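 also: channel activity triggered by adding a high calcium stimulation buffer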
# Voltage-dependent T-type calcium channel subunit alpha-1H, sequence (O95180 whole entry): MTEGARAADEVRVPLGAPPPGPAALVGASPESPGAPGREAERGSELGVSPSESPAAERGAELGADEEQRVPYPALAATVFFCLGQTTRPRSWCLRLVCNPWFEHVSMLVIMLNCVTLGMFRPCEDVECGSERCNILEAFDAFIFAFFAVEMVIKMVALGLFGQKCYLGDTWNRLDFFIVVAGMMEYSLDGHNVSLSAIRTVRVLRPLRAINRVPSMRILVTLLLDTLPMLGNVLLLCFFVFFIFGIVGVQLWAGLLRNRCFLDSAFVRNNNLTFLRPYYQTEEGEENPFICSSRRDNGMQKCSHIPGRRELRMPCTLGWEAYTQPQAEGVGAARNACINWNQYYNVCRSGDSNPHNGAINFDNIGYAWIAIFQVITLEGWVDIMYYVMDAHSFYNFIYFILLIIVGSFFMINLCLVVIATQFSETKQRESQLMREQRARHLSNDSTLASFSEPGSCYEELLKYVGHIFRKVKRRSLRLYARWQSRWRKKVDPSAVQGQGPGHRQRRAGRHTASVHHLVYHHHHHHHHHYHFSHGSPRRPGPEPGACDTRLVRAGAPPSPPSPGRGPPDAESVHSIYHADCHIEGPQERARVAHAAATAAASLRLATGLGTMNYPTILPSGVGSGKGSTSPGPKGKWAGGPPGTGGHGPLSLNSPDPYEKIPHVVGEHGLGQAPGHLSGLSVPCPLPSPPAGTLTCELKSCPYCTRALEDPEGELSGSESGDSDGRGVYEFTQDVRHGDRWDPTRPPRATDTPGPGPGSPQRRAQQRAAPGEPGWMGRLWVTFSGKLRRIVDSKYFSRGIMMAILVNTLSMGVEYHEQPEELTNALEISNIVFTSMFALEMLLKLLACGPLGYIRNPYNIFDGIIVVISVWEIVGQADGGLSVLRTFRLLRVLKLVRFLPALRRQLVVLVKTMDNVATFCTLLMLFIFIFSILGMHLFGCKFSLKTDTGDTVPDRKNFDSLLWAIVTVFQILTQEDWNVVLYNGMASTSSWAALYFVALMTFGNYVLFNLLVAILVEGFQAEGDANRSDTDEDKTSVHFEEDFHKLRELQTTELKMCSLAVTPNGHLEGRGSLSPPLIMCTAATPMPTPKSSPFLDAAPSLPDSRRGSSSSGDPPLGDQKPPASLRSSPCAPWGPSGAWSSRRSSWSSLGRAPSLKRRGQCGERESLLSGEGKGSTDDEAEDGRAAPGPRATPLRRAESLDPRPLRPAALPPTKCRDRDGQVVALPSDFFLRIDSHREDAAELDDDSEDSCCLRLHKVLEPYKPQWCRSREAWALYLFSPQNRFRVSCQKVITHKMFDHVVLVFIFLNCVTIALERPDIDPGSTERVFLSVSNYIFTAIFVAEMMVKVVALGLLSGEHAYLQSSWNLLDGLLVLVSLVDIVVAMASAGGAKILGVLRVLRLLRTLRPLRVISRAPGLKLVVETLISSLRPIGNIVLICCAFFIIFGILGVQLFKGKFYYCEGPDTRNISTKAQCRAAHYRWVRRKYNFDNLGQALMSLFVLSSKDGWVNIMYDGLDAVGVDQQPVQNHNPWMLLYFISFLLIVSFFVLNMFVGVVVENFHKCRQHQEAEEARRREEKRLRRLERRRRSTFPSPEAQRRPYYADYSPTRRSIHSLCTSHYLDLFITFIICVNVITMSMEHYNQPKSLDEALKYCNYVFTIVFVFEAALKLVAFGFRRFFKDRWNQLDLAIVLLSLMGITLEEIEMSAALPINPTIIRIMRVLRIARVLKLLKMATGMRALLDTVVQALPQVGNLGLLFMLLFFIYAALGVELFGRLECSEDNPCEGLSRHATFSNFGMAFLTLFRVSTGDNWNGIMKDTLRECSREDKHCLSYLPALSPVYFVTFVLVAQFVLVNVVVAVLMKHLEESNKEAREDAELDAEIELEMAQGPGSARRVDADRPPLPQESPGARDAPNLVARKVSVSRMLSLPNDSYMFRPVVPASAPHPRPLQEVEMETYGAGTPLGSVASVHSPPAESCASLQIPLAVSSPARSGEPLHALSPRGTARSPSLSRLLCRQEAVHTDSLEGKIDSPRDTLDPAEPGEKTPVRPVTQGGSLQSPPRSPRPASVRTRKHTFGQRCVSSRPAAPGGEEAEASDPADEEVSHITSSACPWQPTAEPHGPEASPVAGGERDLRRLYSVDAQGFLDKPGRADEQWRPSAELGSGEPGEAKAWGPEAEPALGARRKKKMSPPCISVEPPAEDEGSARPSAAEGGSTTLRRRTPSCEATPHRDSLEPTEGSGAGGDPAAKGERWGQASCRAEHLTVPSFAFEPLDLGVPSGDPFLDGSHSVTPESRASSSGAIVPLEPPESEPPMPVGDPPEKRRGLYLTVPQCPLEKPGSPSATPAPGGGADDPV
# [2] = NIH-3T3 fibroblast cytotoxicity, dose response, cytotoxicity control, cell-based, fluorescence, Alamar Blue, secondary assay (AID 2327); type: functional;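 also: NIH-3T3 mouse fibroblasts cultured with fluconazole at 8 µg/mL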
# [3] = C. albicans growth with fluconazole, confirmation, fluorescence, retest (AID 2467); type: functional, cell-based
# [4] = Shn3 3'UTR reporter inhibitors, dose response, cell-based, Clone20 osteoblasts, firefly luciferase, cherry-picked (AID 624132); type: functional;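 also: firefly luciferase luminescence from reporter carrying the Shn3 3'UTR in osteoblasts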
# [5] = HepG2 cell cytotoxicity, dose response, cytotoxicity control for Shn3 inhibitor project, CellTiter-Glo, cherry-picked (AID 624134); type: functional, cell-based
# [6] = control 3'UTR Renilla luciferase suppression, dose response, counter-screen for Shn3 inhibitor project, cell-based, Clone20-Shn3RL, cherry-picked (AID 624133); type: functional
# [7] = HEp-2 cell cytotoxicity, dose response, cytotoxicity control for RSV inhibitor project, HTS (AID 2410); type: functional; settings: human respiratory syncytial virus
# [8] = target: T2, High affinity choline transporter 1 (Homo sapiens, UniProt Q9GZV3); test: CHT inhibitors, dose response, cell-based, 5-point CRC, membrane potential dye (AID 504840); type: functional
# T2 sequence (Q9GZV3 whole entry): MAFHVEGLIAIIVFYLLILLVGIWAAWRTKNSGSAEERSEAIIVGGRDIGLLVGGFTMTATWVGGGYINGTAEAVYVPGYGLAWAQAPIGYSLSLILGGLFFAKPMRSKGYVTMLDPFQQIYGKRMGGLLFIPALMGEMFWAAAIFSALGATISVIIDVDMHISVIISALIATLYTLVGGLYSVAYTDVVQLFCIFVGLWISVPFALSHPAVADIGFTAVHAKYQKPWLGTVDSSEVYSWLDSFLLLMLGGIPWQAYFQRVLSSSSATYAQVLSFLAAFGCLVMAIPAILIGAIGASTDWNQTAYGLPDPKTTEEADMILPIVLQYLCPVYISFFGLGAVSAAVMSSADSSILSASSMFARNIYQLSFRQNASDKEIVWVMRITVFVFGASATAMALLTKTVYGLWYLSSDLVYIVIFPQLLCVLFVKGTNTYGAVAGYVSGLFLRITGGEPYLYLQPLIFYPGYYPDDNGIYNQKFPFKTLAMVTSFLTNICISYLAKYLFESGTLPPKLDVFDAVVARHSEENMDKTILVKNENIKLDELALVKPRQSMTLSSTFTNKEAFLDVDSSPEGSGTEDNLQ
# [9] = target: T3, Ubiquitin-conjugating enzyme E2 N (Homo sapiens, UniProt P61088); type: functional;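 also: Dose-response confirmation in a TR-FRET assay detecting UBC13-driven polyubiquitin chain formation, inhibition measured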
# T3 sequence (P61088 whole entry): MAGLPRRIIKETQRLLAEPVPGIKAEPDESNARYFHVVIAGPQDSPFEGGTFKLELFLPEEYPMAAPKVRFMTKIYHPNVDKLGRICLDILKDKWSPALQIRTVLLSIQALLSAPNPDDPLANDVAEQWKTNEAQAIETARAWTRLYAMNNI
# [10] = target: T4, Corticotropin-releasing factor receptor 2/Corticotropin-releasing factor-binding protein (Homo sapiens, UniProt P24387+Q13324); test: Dose Response confirmation of uHTS hits for small molecule antagonists of the CRF-binding protein and CRF-R2 receptor complex.; type: functional; settings: read-out: IC50_Mean
# T4 sequence (Q13324 whole entry): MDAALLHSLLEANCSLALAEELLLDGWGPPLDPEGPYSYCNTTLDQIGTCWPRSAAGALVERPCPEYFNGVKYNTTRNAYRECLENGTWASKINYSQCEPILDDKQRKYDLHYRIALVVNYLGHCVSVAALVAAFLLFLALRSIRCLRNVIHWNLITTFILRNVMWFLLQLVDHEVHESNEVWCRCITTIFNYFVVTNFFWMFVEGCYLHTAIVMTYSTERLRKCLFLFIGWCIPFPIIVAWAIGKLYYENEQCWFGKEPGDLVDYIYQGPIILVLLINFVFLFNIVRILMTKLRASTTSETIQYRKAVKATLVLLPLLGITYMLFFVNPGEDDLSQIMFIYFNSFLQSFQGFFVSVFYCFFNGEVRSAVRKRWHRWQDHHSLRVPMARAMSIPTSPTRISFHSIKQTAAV
# T4 sequence (P24387 whole entry): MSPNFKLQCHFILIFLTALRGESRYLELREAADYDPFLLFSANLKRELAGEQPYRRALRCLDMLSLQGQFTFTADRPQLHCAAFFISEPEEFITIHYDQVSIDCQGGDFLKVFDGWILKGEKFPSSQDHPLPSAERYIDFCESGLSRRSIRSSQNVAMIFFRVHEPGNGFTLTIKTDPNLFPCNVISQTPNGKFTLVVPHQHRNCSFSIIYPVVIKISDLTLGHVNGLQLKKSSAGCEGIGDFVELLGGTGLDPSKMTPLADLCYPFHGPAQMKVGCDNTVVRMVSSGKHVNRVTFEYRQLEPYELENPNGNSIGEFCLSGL
# [11] = target: T4, Corticotropin-releasing factor receptor 2/Corticotropin-releasing factor-binding protein; test: activators of CRF receptor 2 with binding protein – uHTS hits, confirmation (AID 602473); type: functional; settings: read-out: EC50_Mean
# P388/ADR = test: cells; type: functional; settings: Mus musculus
# SN12K1 = test: cells; type: functional; settings: Homo sapiens
# P388 = test: cells; type: functional; settings: Mus musculus
# [12] = inhibitors of firefly luciferase expression or activity, dose response, H4 neuroglioma cells, luminescence (AID 1990); type: functional, cell-based
# [13] = Luminescence Cell-Based Dose Response HTS to Identify Inhibitors of 5'UTR Stem-Loop Driven Prion Protein mRNA Translation in H4 Neuroglioblastoma Cells. [Related pubchem assays: 1827 (Project Summary), 1813 (Primary HTS)]; type: functional
# [14] = inhibitors of SNCA 5'UTR-driven reporter translation, confirmation, H4 neuroglioma cells, luminescence (AID 1988); type: functional, cell-based
# [15] = target: T5, Heat shock factor protein 1 (Mus musculus, UniProt P38532); test: HSF1 potentiators in luciferase reporter cells, confirmation, cell-based, NIH3T3, luminescence, dose retest (AID 435004); type: functional;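 also: stress induced by proteasome inhibitor MG132 added 30 min after compound; luciferase reporter driven by HSF1 response element in NIH3T3 cells; actives raise luminescence as potentiators of the MG132 stress response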
# T5 sequence (P38532 whole entry): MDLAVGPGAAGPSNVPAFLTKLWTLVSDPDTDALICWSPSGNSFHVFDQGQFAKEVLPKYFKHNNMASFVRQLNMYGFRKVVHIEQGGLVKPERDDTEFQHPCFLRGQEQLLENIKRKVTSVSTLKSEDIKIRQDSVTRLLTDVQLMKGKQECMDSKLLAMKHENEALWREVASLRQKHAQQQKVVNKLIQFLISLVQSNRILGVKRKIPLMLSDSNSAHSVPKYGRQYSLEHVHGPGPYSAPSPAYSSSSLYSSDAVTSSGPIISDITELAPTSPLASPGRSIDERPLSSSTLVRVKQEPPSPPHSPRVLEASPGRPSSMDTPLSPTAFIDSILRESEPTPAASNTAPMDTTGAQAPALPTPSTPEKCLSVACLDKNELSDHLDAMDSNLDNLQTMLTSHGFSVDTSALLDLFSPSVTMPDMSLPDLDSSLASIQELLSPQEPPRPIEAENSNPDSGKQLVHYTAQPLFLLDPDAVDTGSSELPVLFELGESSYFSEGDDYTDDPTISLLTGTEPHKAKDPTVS
structure (smiles),measurement,setting,value
Cc1noc(NS(=O)(=O)c2ccc(NC(=O)C(CC(C)C)N3C(=O)c4ccccc4C3=O)cc2)c1C (stereo unspecified),IC50,Aminopeptidase N,7.56 µM (active)
O=C1CC(c2nc3ccccc3[nH]2)CN1c1cccc(C(F)(F)F)c1 (stereo unspecified),EC50,[1],8.89 µM (active)
CCN(CC)C(=O)Cn1c(=O)n(-c2ccccc2)c(=O)c2c3c(sc21)CCC3,EC50,[2],> 160 µM (inactive)
same,IC50,Aminopeptidase N,51.2 µM (active)
same,EC50,[3],> 38 µM (not active)
CCc1nnc(NS(=O)(=O)c2ccc(NC(=S)NC(=O)c3cccs3)cc2)s1,IC50,Aminopeptidase N,35.4 µM (active)
NS(=O)(=O)c1ccc(CCNCc2cc(Br)ccc2OCc2ccccc2)cc1,AC50,[4],2.92 µM (active)
same,AC50,[5],53.7 µM (active)
same,AC50,[6],5.96 µM (active)
COc1ccc(OCC(O)CNCCOc2ccccc2OC)c(C(C)(C)C)c1 (stereo unspecified),CC50,[7],14.7 µM (active)
same,AC50,[4],11.6 µM (active)
same,AC50,[5],30.7 µM (active)
same,AC50,[6],19.6 µM (active)
O=C(Cc1c[nH]c2ccccc12)OCCOC(=O)Cc1c[nH]c2ccccc12,EC50,[1],4.77 µM (active)
O=C(CSc1nnc(-c2ccncc2)n1Cc1ccco1)c1ccc(Cl)cc1,IC50,[8],1.91 µM (active)
O=c1oc2c(CN3CCOCC3)c(O)ccc2c2c1CCCC2,IC50,Aminopeptidase N,23.7 µM (active)
CCc1ccc(N(C(=O)c2snc(C(N)=O)c2N)C(C(=O)NCC2CCCO2)c2ccco2)cc1 (stereo unspecified),IC50,[9],> 20 µM (inactive)
COC(=O)c1ccccc1NC(=O)c1cccc(NC(=O)c2ccc(Br)o2)c1C,EC50,[1],5.7 µM (active)
COc1cccc(-c2csc(N3CCN(C(=O)NC45CC6CC(CC(C6)C4)C5)CC3)n2)c1,EC50,[1],5.32 µM (active)
CC(=O)NC(c1ccco1)c1cc(Cl)c2ccccc2c1O (stereo unspecified),IC50,[9],> 20 µM (inactive)
Cc1ccc(C)c(NC(=O)C2C(c3ccccc3)C2(Cl)Cl)c1 (stereo unspecified),EC50,[1],0.968 µM (active)
Cc1ccc(-c2nnn(CC(=O)N(c3ccccc3F)C(C(=O)NCC3CCCO3)c3c[nH]c4ccccc34)n2)cc1 (stereo unspecified),EC50,[1],4 µM (active)
CN(C(=S)NC(=O)CCCOc1ccc(Cl)cc1Cl)c1ccccc1,EC50,[1],4.13 µM (active)
CN(C)c1oc(-c2cccs2)nc1C#N,IC50,Aminopeptidase N,104 µM (active)
Cc1ccc(NC(=O)CSc2nccn2Cc2ccccc2)cc1C,EC50,[1],2.74 µM (active)
CCc1nn2c(NCCOC)cc(C)nc2c1-c1ccc(F)cc1,IC50,[8],14.5 µM (active)
CCCNS(=O)(=O)c1cccc(C(=O)NC2CCCc3ccccc32)c1 (stereo unspecified),IC50,[8],13.5 µM (active)
same,IC50,[10],> 47.1 µM (inactive)
same,EC50,[11],> 53 µM (inactive)
CN(C)Cc1c(O)ccc2c3c(c(=O)oc12)CCCCC3,IC50,Aminopeptidase N,44.5 µM (active)
C=C1CC2(OC1=O)c1ccccc1CCc1ccccc12,AC50,[4],1.28 µM (active)
same,AC50,[5],11.4 µM (active)
same,AC50,[6],5.67 µM (active)
CN(CCOc1ccc(Cl)cc1)C(=O)c1cccc(S(=O)(=O)N2CCN(Cc3ccccc3)CC2)c1,AC50,[4],2.29 µM (active)
same,AC50,[5],> 70 µM (inactive)
same,AC50,[6],3.57 µM (active)
Cc1nc2ccccc2c(=O)n1Nc1ccc(C(=O)O)cc1,GI50,P388/ADR,> 100 µM (inactive)
same,GI50,SN12K1,> 100 µM (inactive)
same,GI50,P388,> 100 µM (inactive)
CC(C)CC(/C(O)=C(\C#N)c1nc2ccccc2[nH]1)N1C(=O)c2ccccc2C1=O (stereo unspecified),CC50,[7],21 µM (active)
same,EC50,[12],> 120 µM (not active)
same,EC50,[13],> 120 µM (not active)
same,EC50,[14],12.3 µM (active)
same,EC50,[1],14.8 µM (active)
same,EC50,[15],> 260 µM (inactive)
Cc1ccccc1-n1c(C)cc(/C=N/NC(=O)c2ccc(CN3CCOCC3)cc2)c1C,IC50,[8],7.94 µM (active)
CN(C)C1(C/N=C/c2cc(Cl)cc([N+](=O)[O-])c2O)CCCCC1,IC50,[8],14.5 µM (active)
CC(C)(C)OC(=O)[C@H](Cc1ccccc1)NC(=O)c1nc[nH]c1C(=O)N[C@@H](CCCCN)C(=O)OC(C)(C)C,IC50,[9],> 20 µM (inactive)
CC(C)[C@](O)(C(=O)OCC1=CCN2CC[C@@H](O)[C@@H]12)[C@H](C)O,GI50,P388/ADR,> 375 µM (inactive)
same,GI50,SN12K1,> 375 µM (inactive)
same,GI50,P388,> 375 µM (inactive)
